Patent US6727288B2, “Method for treating bone fracture” (Juneng Industry Co., Ltd., priority 2001, dated 2004)
Marks after values point to notes of the source that are not given here.

What was measured:
[1] = tested on: ALP activity of osteoblast (OB2); test: ALP activity of OB2 cell lysates, para-nitrobenzene phosphate method; assay type: cell-based, SD rat; details: 10^−3 mol/L; for ALP activity of osteoblast: n = 4
Protocol: (§1) 1) Sampling: after a newborn (within 24 hours) SD rat was disinfected, the calvaria were excised under sterilization conditions. The calvaria were predigested by 0.25% trypsin for 10-15 minutes firstly, then oscillated and digested by 0.1% collagenase II at 37° C. for 60 minutes. The cells were collected by centrifugation at 1000 rpm.
(§2) 2) Cell culture: The isolated cells were inoculated into culture flask at a concentration of 1×10^4/cm^2, wherein the culture solution is 10% of NCS-MEM. The cells were cultured in an incubator with 5% CO2 at 37° C., then passaged until half confluence. The second generation of secondary cells (OB2) were tested for pharmacodynamics.
(§3) 3) Medicines: Each test medicine was formulated at a concentration of 0.1 mol/L, and sterilized by high pressure for later use.
(§4) 2.24 g of calcium gluconate was dissolved in 50 ml of deionized water at room temperature. The control group was deionized water.
OB2 was inoculated into 24 well COSTOR culture plate at a density of 2×10^4 per well. 24 hours later, the above culture solution was replaced by medium containing medicines. Then the culture solution was changed every 48 hours until confluence of cells was reached. ALP activity of cell lysates was measured by para-nitrobenzene phosphate method. Content of protein in cell lysates was measured by Coomassie brilliant blue method.

[2] = tested on: osteoblasts (OB2); test: Mineralization function of OB2, alizarin red nodule count; assay type: cell-based, SD rat; details: for Number of mineralization nodules: 14 days, alizarin red, n = 4
Protocol: as §1, §2, §3, §4
OB2 was inoculated into 6 well COSTOR culture plate at a density of 5×10^4 per well. 24 hours later, the above culture solution was replaced by culture solution containing medicines. Then the solution was changed every 48 hours. 14 days later, the cells were fixed and stained with alizarin red.

[3] = tested on: osteoblasts (OB2); test: Osteoblast (OB2) proliferation, MTT method; assay type: cell-based, SD rat; details: for A570 (X ± SD): 72 hours, MTT, n = 4
Protocol: as §1, §2, §3, §4
OB2 were inoculated into 24 well COSTOR culture plate at a density of 6×10^3 per well. 24 hours later, the above culture solution was replaced by culture solution containing varying concentrations of medicines ranging from 10^−9 to 10^−3 mol/L. 72 hours after adding medicines, the cells were tested through Labsystems Multiskan MS (Finland) )ELISA analyzer by MTT method. OD value at 570 nm was used to reflect cell proliferation.

[4] = tested on: α-COLI mRNA in osteoblast (OB2); test: mRNA expression of α-COLI in osteoblasts by quantitative RT-PCR; assay type: cell-based, SD rat; details: 10^−3 mol/L; for level of α-COLI mRNA compared with control group: quantitative RT-PCR, in words
Protocol: 1. Cell Culture: The culture method of primary osteoblast was the same as that of the previous test. OB2 was inoculated at density of 1×10^4 cells/cm^2. […] Culture medium was changed every 48 hours and the medicines were added. Total RNA of the cells was extracted one week later.
2. Extraction of RNA: The cells were digested with 0.25% trypsin, and were centrifuged at 1000 rpm for 5 min to collect cell pellets. Total RNA was extracted with TRIzol reagent (Gibco Co.) method.
3. Reverse transcriptase polymerase chain reaction (RT-PCR): Access RT-PCR System kit (Promega) was used in the test, following the directions of the kit. The RT-PCR of the reaction mixture was performed in PCR analyzer (Bio-Rad Inc.) at 48° C. for 45 min. Inactivate enzyme at 94° C. for 2 min, then 30 cycles of PCR reaction: […] at 94° C. for degeneration, 1 min at 54° C. for annealing, 2 min at 72° C. for extension, and after the last cycle, 7 min at 72° C. for another extension. 9 μl PCR products were analyzed in 1.5% agarose gel electrophoresis. Then the bands were analyzed by image analysis system (Image Master VDS). Optical density value was calibrated by internal reference-Actin, and the calibration values were analyzed statistically.
4. Medicines: Each test medicine was formulated at the concentration of 0.1 mol/L, and sterilized by high pressure for later use. […] Calcium gluconate, Shanghai Huanghai Pharmaceutical Factory, 2.24 g was dissolved in 50 ml deionized water.

[5] = tested on: emasculated rat; details: in words

Row | Molecule | ALP activity of osteoblast ([1]; Experiment 1) | ALP activity of osteoblast ([1]; Experiment 2) | ALP activity of osteoblast ([1]; Experiment 3) | Number of mineralization nodules [2] | A570 (X ± SD) ([3]; test I, 10^−3 mol/L) | A570 (X ± SD) ([3]; test I, 10^−5 mol/L) | A570 (X ± SD) ([3]; test I, 10^−7 mol/L) | A570 (X ± SD) ([3]; test I, 10^−9 mol/L) | A570 (X ± SD) ([3]; test II, 10^−3 mol/L) | A570 (X ± SD) ([3]; test II, 10^−5 mol/L) | A570 (X ± SD) ([3]; test II, 10^−7 mol/L) | A570 (X ± SD) ([3]; test II, 10^−9 mol/L) | A570 (X ± SD) ([3]; test III, 10^−3 mol/L) | A570 (X ± SD) ([3]; test III, 10^−5 mol/L) | A570 (X ± SD) ([3]; test III, 10^−7 mol/L) | A570 (X ± SD) ([3]; test III, 10^−9 mol/L) | level of α-COLI mRNA compared with control group [4] | further results
1 | [Ca+2].[Cl-].[Cl-] [Calcium chloride] | 0.119 ± 0.039 U/mg of protein | 0.122 ± 0.08 U/mg of protein | 0.102 ± 0.008 U/mg of protein | 6.4 ± 1.673^& | 0.325 ± 0.052 | 0.277 ± 0.037 | 0.239 ± 0.005^& | 0.237 ± 0.005^& | 0.423 ± 0.028***^& | 0.324 ± 0.047^& | 0.268 ± 0.022^& | 0.292 ± 0.023 | 0.281 ± 0.014 | 0.268 ± 0.025^& | 0.229 ± 0.09 | 0.267 ± 0.016 | – | –
2 | Calcium gluconate | 0.115 ± 0.009 U/mg of protein | 0.140 ± 0.016 U/mg of protein | 0.107 ± 0.025 U/mg of protein | 6.2 ± 2.588^& | 0.381 ± 0.052 | 0.351 ± 0.039 | 0.267 ± 0.009*^& | 0.265 ± 0.025 | 0.359 ± 0.072**^& | 0.301 ± 0.051 | 0.268 ± 0.019*^& | 0.248 ± 0.017^& | 0.229 ± 0.021 | 0.242 ± 0.012 | 0.233 ± 0.021^$ | 0.229 ± 0.017 | no significant difference | Relative expression amount of α-COLI ([4]; one week, calibrated by β-Actin, X ± SD, n = 3): 1.2524 ± 0.377
3 | calcium L-threonate | 0.156 ± 0.002 U/mg of protein | 0.208 ± 0.003 U/mg of protein | 0.164 ± 0.026 U/mg of protein | 12.0 ± 3.742 | 0.458 ± 0.019 | 0.405 ± 0.085 | 0.401 ± 0.082 | 0.387 ± 0.087 | 0.486 ± 0.010 | 0.449 ± 0.041 | 0.371 ± 0.047 | 0.418 ± 0.047 | 0.386 ± 0.024 | 0.327 ± 0.034 | 0.338 ± 0.048 | 0.316 ± 0.073 | increased significantly | ALP activity of OB2 versus control group ([1]; in words): higher than that of control group; number of mineralization nodules versus other groups ([2]; within two weeks, in words): the largest; biomechanical parameters [5]: significantly increase; bone density [5]: significantly increase; content of bone calcium [5]: significantly increase; effect on proliferation of osteoblast ([3]; 10^−9-10^−3 mol/L, in words): promoting proliferation of osteoblast
